The values that follow come from ChEMBL document CHEMBL1152027, “The prooligonucleotide approach. I: Esterase-mediated reversibility of dithymidine S-alkyl-phosphorothiolates to dithymidine phosphorothioates” (Bioorg Med Chem Lett, 1995).

For orientation: half-life means how long it takes for the measured level to halve. Low readings indicate fast loss, high ones slow loss.

The nature of series [1]: Half-life in the CEM cell extracts. It counts as ADME, CCRF-CEM. Particulars: human.
The nature of series [2]: Half-life in the culture medium (RPMI 1640+10% fetal calf serum FCS). It counts as ADME, cell-free, Bos taurus. Particulars: cattle.

As for `CC(=O)SCSP(=O)(OCc1oc(-n2cc(C)c(=O)[nH]c2=O)cc1O)Oc1cc(-n2cc(C)c(=O)[nH]c2=O)oc1CO` (stereo unspecified), the half-life in series [1] is less than 0.0833 h; in series [2] it was 1 h.
`Cc1cn(-c2cc(O)c(COP(=O)(Oc3cc(-n4cc(C)c(=O)[nH]c4=O)oc3CO)SCOC(=O)C(C)(C)C)o2)c(=O)[nH]c1=O` (stereo unspecified): the figures for the half-life in series [1] and in series [2] were 0.667 h and 6 h, respectively.
As to `CC(=O)SCCSP(=O)(OCc1oc(-n2cc(C)c(=O)[nH]c2=O)cc1O)Oc1cc(-n2cc(C)c(=O)[nH]c2=O)oc1CO` (stereo unspecified), the half-life in series [1] is less than 0.0833 h; in series [2], 7 h.
